In brackets after ≈: the same amount, converted by molar mass.

Series [1] in a line: in vitro. The note with it: human.
For series [2], the system named is Poliovirus 3. The series can be described thus: microbe, parasite or virus in culture. The note with it: Enterovirus C, read-out: Poliovirus3 EC50. The format is cell-based.

Turning to `CCOC(=O)N[C@@]12C(=O)c3ccccc3[C@]1(O)Oc1cc(C(C)C)ccc12`, the melting point (usually the temperature, or range, at which the solid turns liquid) lay in the range of 115 to 118 °C.

The molecule `CC(=O)O[C@@]12Oc3cc(C(C)C)ccc3[C@]1(OC(C)=O)C(=O)c1c(NS(C)(=O)=O)cccc12` (stereo in doubt) [Example 54, acetic acid 4b-acetoxy-7-isopropyl-1-methanesulfonylamino-10-oxo-4b,10-dihydro-5-oxa-indeno[2,1-a]inden-9b-yl ester] returned a melting point of 96 to 100 °C. In series [1] (Picorana CC50), this molecule came in with a CC50 of over 50 µg/mL.

Molecule `Cc1ccc2c(c1)OC1(O)c3ccccc3C(=O)C21O` (stereo not drawn) [Example 1, 4b,9b-Dihydroxy-7-methyl-4bH-benzo[d]indeno[1,2-b]furan-10(9bH)-one] came in with a melting point of 145 to 147 °C. The same molecule had a CC50 in series [1] (Picorana CC50) of over 50 µg/mL.

`CC(=O)OC12Oc3cc(C)ccc3C1(OC(C)=O)C(=O)c1ccccc12` (stereo not drawn) [Example 2, 7-Methyl-10-oxo-9b,10-dihydro-4bH-benzo[d]indeno[1,2-b]furane-4b,9b-diyl diacetate] had a melting point of 167 to 169 °C. The molecule further had a CC50 in series [1] (Picorana CC50) of over 50 µg/mL.

Turning to `CCOC(=O)Cc1cc(OC)c2c(c1)C1(O)C(=O)c3ccccc3C1(O)O2` (stereo not drawn) [Example 3, Ethyl 2-(4b,9b-dihydroxy-6-methoxy-10-oxo-9b,10-dihydro-4bH-benzo[d]indeno[1,2-b]furane-8-yl)acetate], the melting point fell in the range of 133 to 136 °C. In series [1] (Picorana CC50), this molecule returned a CC50 of over 50 µg/mL.

In turn, `Cc1cc2c(cc1C)C1(O)C(=O)c3ccccc3C1(O)O2` (stereo not drawn) [Example 4, 4b,9b-dihydroxy-7,8-dimethyl-4bH-benzo[d]indeno[1,2-b]furan-10(9bH)-one] showed a melting point of 198 to 200 °C. Besides, the CC50 in series [1] (Picorana CC50) is over 50 µg/mL.

For the molecule `COc1ccc2c(c1)OC1(O)c3ccccc3C(=O)C21O` (stereo not drawn) [Example 7, 4b,9b-Dihydroxy-7-methoxy-4bH-benzo[d]indeno[1,2-b]furan-10(9bH)-one], the melting point lay in the range of 98 to 100 °C. Moreover, the CC50 in series [1] (Picorana CC50) is over 50 µg/mL.

`O=C1c2ccccc2C2(O)Oc3c(ccc(Cl)c3Cl)C12O` (stereo not drawn) [Example 8, 6,7-Dichloro-4b,9b-dihydroxy-4bH-benzo[d]indeno[1,2-b]furan-10(9bH)-one] returned a melting point of 142 to 150 °C. Also, the CC50 in series [1] (Picorana CC50) amounted to 44.1 µg/mL (≈ 136 µM).

Turning to `CCc1ccc2c(c1)OC1(O)c3ccccc3C(=O)C21O` (stereo not drawn) [Example 9, 7-Ethyl-4b,9b-dihydroxy-4bH-benzo[d]indeno[1,2-b]furan-10(9bH)-one], the melting point lay within 168 to 169 °C. The CC50 in series [1] (Picorana CC50) stood at 18 µg/mL (≈ 63.8 µM).

In turn, `CC(=O)OC12Oc3cc(C(C)C)ccc3C1(OC(C)=O)C(=O)c1ccccc12` (stereo not drawn) [Example 11, 7-Isopropyl-10-oxo-9b,10-dihydro-4bH-benzo[d]indeno[1,2-b]furane-4b,9b-diyl diacetate] yielded a melting point of 138 to 140 °C. For the same molecule, the CC50 in series [1] (Picorana CC50) is 16.2 µg/mL.

For `COc1ccc2c(c1)C1(O)C(=O)c3ccccc3C1(O)O2` (stereo not drawn) [Example 12, 4b,9b-Dihydroxy-8-methoxy-4bH-benzo[d]indeno[1,2-b]furan-10(9bH)-one], the melting point fell in the range of 186 to 189 °C. In series [1] (Picorana CC50), this molecule displayed a CC50 of over 50 µg/mL.

As to `O=C1c2ccccc2C2(O)Oc3c(-c4ccccc4)cccc3C12O` (stereo not drawn) [Example 13, 4b,9b-Dihydroxy-6-phenyl-4bH-benzo[d]indeno[1,2-b]furan-10(9bH)-one], the melting point fell in the range of 182 to 183 °C. The CC50 in series [1] (Picorana CC50) stood at 8.08 µg/mL (≈ 24.5 µM).

`O=C1c2ccccc2C2(O)Oc3ccc([N+](=O)[O-])cc3C12O` (stereo not drawn) [Example 14, 4b,9b-Dihydroxy-8-nitro-4bH-benzo[d]indeno[1,2-b]furan-10(9bH)-one] showed a melting point of 206 to 207 °C. The CC50 in series [1] (Picorana CC50) is over 50 µg/mL.

For `CC(C)c1ccc2c(c1)OC1(O)c3cccc(N)c3C(=O)C21NC(=O)c1ccnnc1` (stereo not drawn) [Example 276, N-(1-Amino-4b-hydroxy-7-isopropyl-10-oxo-9b,10-dihydro-4bH-indeno[1,2-b]benzofuran-9b-yl)pyridazine-4-carboxamide], the CC50 in series [1] is over 10 µg/mL. Further, in series [2], the half-maximal effective concentration (EC50) (commonly the concentration that produces a half-maximal response) is under 0.01 µg/mL.

In turn, `CC(C)c1ccc2c(c1)OC1(O)c3cccc(N)c3C(=O)C21NC(=O)c1ccc2nnnn2c1` (stereo not drawn) [Example 278, N-(1-Amino-4b-hydroxy-7-isopropyl-10-oxo-9b,10-dihydro-4bH-indeno[1,2-b]benzofuran-9b-yl)tetrazolo[1,5-a]pyridine-6-carboxamide] displayed a CC50 in series [1] of over 10 µg/mL. In addition, in series [2], the EC50 was under 0.01 µg/mL.

For the molecule `CC(C)c1ccc2c(c1)OC1(O)c3cccc(N)c3C(=O)C21NC(=O)c1cccn2nnnc12` (stereo not drawn) [Example 279, N-(1-Amino-4b-hydroxy-7-isopropyl-10-oxo-9b,10-dihydro-4bH-indeno[1,2-b]benzofuran-9b-yl)tetrazolo[1,5-a]pyridine-8-carboxamide], the CC50 stood at 4.94 µg/mL (≈ 10.8 µM) in series [1] and 7.88 µg/mL (≈ 17.3 µM) in series [1] (Picorana CC50). Further, the EC50 in series [2] was 0.035 µg/mL (≈ 0.0767 µM).

The molecule `Cc1ccnc2nc(C(=O)NC34C(=O)c5c(N)cccc5C3(O)Oc3cc(C(C)C)ccc34)nn12` (stereo not drawn) [Example 281, N-(1-Amino-4b-hydroxy-7-isopropyl-10-oxo-9b,10-dihydro-4bH-indeno[1,2-b]benzofuran-9b-yl)-7-methyl-[1,2,4]triazolo[1,5-a]pyrimidine-2-carboxamide] returned a CC50 in series [1] of over 10 µg/mL. Further, the EC50 in series [2] stood at 0.025 µg/mL (≈ 0.0531 µM).

`CC(C)c1ccc2c(c1)OC1(O)c3cccc(N)c3C(=O)C21NC(=O)c1cn2cccnc2n1` (stereo not drawn) [Example 285, N-(1-Amino-4b-hydroxy-7-isopropyl-10-oxo-9b,10-dihydro-4bH-indeno[1,2-b]benzofuran-9b-yl)imidazo[1,2-a]pyrimidine-2-carboxamide] displayed a CC50 in series [1] of over 10 µg/mL. The EC50 in series [2] is under 0.01 µg/mL.

`CC(C)c1ccc2c(c1)OC1(O)c3cccc(N)c3C(=O)C21NC(=O)c1cc2ccccc2c(=O)[nH]1` (stereo not drawn) [Example 286, N-(1-Amino-4b-hydroxy-7-isopropyl-10-oxo-9b,10-dihydro-4bH-indeno[1,2-b]benzofuran-9b-yl)-1-oxo-1,2-dihydroisoquinoline-3-carboxamide]: the CC50 turned out to be 4.04 µg/mL (≈ 8.39 µM) in series [1] and 4.28 µg/mL (≈ 8.89 µM) in series [1] (Picorana CC50). Also, the EC50 in series [2] is under 0.01 µg/mL.

On to `Cc1nc(C(=O)NC23C(=O)c4c(N)cccc4C2(O)Oc2cc(C(C)C)ccc23)c2ccccn12` (stereo not drawn) [Example 287, N-(1-Amino-4b-hydroxy-7-isopropyl-10-oxo-9b,10-dihydro-4bH-benzo[d]indeno[1,2-b]furan-9b-yl)-3-methylimidazo[1,5-a]pyridine-1-carboxamide], for which the CC50 was over 10 µg/mL in series [1] and 7.01 µg/mL (≈ 15 µM) in series [1] (Picorana CC50). The EC50 in series [2] came to 0.036 µg/mL (≈ 0.0768 µM).

Turning to `CC(C)c1ccc2c(c1)OC1(O)c3cccc(N)c3C(=O)C21NC(=O)c1nc2ccccc2[nH]1` (stereo not drawn) [Example 290, N-(1-Amino-4b-hydroxy-7-isopropyl-10-oxo-9b,10-dihydro-4bH-indeno[1,2-b]benzofuran-9b-yl)-1H-benzo[d]imidazole-2-carboxamide], the results for the CC50 in series [1] and in series [1] (Picorana CC50) were 4.51 µg/mL (≈ 9.92 µM) and 4.32 µg/mL (≈ 9.51 µM), respectively. Besides, the EC50 in series [2] was found to be 0.032 µg/mL (≈ 0.0704 µM).

Take `CC(C)c1ccc2c(c1)OC1(O)c3cccc(N)c3C(=O)C21NC(=O)c1nc2cc(F)ccc2[nH]1` (stereo not drawn) [Example 291, N-(1-Amino-4b-hydroxy-7-isopropyl-10-oxo-9b,10-dihydro-4bH-indeno[1,2-b]benzofuran-9b-yl)-5-fluoro-1H-benzo[d]imidazole-2-carboxamide]: the CC50 was 4.51 µg/mL (≈ 9.55 µM) in series [1] and 4.43 µg/mL (≈ 9.38 µM) in series [1] (Picorana CC50). Besides, in series [2], the EC50 was 0.036 µg/mL (≈ 0.0762 µM).

The values above are taken from patent US9890133B2 (priority 2011, dated 2018).
